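96-well plates; 48 h exposure; 5 concentrations. Endpoints by linear interpolation between flanking doses. Not reached: highest tested concentration assigned. The concentration for 50% growth inhibition is given as GI50.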 Activity calls are given as the source filed them. No stated cut-off is given here; in the data, active = GI50 up to about 1.1 µM and inactive = higher.
What was measured:
Assay in all cases: DTP human tumour cell line panel, 48 h
[1] = system: NCI/ADR-RES
[2] = system: T47D
[3] = system: HL-60
[4] = system: RPMI-8226
[5] = system: UACC-62
[6] = system: SK-MEL-5
[7] = system: ACHN
[8] = system: EKVX
[9] = system: NCI-H23
[10] = system: Hs-578T
[11] = system: MDA-MB-435
[12] = system: DU-145
[13] = system: A498
[14] = system: HCC 2998
[15] = system: MCF7
[16] = system: IGROV-1
[17] = system: 786-0
[18] = system: HT-29
[19] = system: MDA-N
[20] = system: SR

SMILES | GI50 [1] | GI50 [2] | GI50 [3] | GI50 [4] | GI50 [5] | GI50 [6] | GI50 [7] | GI50 [8] | GI50 [9] | GI50 [10] | GI50 [11] | GI50 [12] | GI50 [13] | GI50 [14] | GI50 [15] | GI50 [16] | GI50 [17] | GI50 [18] | GI50 [19] | GI50 [20]
CCOC(=O)/C=C(\C(=O)OCC)n1cc(C)c(=O)n(Cc2cnnn2COCCOC(C)=O)c1=O | 16.1 µM (inactive) | 5.78 µM (inactive) | 3.15 µM (inactive) | 6.24 µM (inactive) | 15.4 µM (inactive) | 19.7 µM (inactive) | 2.67 µM (inactive) | 11.9 µM (inactive) | 17.5 µM (inactive) | 14.3 µM (inactive) | 8.97 µM (inactive) | 21.2 µM (inactive) | 20.8 µM (inactive) | 16.6 µM (inactive) | 5.31 µM (inactive) | 8.45 µM (inactive) | 3.93 µM (inactive) | 8.59 µM (inactive) | 19.9 µM (inactive) | –
O=c1[nH]c(=O)n(C2CC(O)C(CO)O2)cc1OCCc1ccccc1 (configuration not stated) | > 100 µM (inactive) | > 100 µM (inactive) | > 100 µM (inactive) | > 100 µM (inactive) | > 100 µM (inactive) | > 100 µM (inactive) | > 100 µM (inactive) | > 100 µM (inactive) | > 100 µM (inactive) | > 100 µM (inactive) | > 100 µM (inactive) | > 100 µM (inactive) | – | – | > 100 µM (inactive) | > 100 µM (inactive) | > 100 µM (inactive) | > 100 µM (inactive) | > 100 µM (inactive) | > 100 µM (inactive)
OCC(CCc1c[nH]c2ccccc12)c1c[nH]c2ccccc12 (configuration not stated) | 18 µM (inactive) | 16 µM (inactive) | 8.95 µM (inactive) | 27 µM (inactive) | 14.1 µM (inactive) | 16.8 µM (inactive) | 17.9 µM (inactive) | 14.7 µM (inactive) | 15.6 µM (inactive) | 20.8 µM (inactive) | 18.4 µM (inactive) | 16.7 µM (inactive) | 15.2 µM (inactive) | – | 15.5 µM (inactive) | 12.7 µM (inactive) | 16 µM (inactive) | 17 µM (inactive) | 16.7 µM (inactive) | 12.1 µM (inactive)
CCOC(=O)C(NC(=O)c1ccccc1)(Nc1ccc(S(=O)(=O)Nc2ccc(OC)nn2)cc1)C(F)(F)F (configuration not stated) | > 100 µM (inactive) | > 100 µM (inactive) | > 100 µM (inactive) | > 100 µM (inactive) | > 100 µM (inactive) | > 100 µM (inactive) | > 100 µM (inactive) | > 100 µM (inactive) | > 100 µM (inactive) | > 100 µM (inactive) | > 100 µM (inactive) | > 100 µM (inactive) | – | > 100 µM (inactive) | > 100 µM (inactive) | > 100 µM (inactive) | > 100 µM (inactive) | > 100 µM (inactive) | > 100 µM (inactive) | > 100 µM (inactive)
O=C(CCc1ccc(O)cc1)NCCCNC(=O)CCc1ccc(O)cc1 | > 100 µM (inactive) | > 100 µM (inactive) | – | > 100 µM (inactive) | > 100 µM (inactive) | > 100 µM (inactive) | > 100 µM (inactive) | – | > 100 µM (inactive) | > 100 µM (inactive) | > 100 µM (inactive) | > 100 µM (inactive) | > 100 µM (inactive) | > 100 µM (inactive) | > 100 µM (inactive) | > 100 µM (inactive) | > 100 µM (inactive) | > 100 µM (inactive) | > 100 µM (inactive) | > 100 µM (inactive)
Cn1c(COC(=O)NC2CCCCC2)c(COC(=O)NC2CCCCC2)c2ccc3cc(C=O)ccc3c21 | > 100 µM (inactive) | > 100 µM (inactive) | 38.1 µM (inactive) | – | > 100 µM (inactive) | > 100 µM (inactive) | > 100 µM (inactive) | > 100 µM (inactive) | > 100 µM (inactive) | 35.3 µM (inactive) | 45.7 µM (inactive) | > 100 µM (inactive) | > 100 µM (inactive) | > 100 µM (inactive) | > 100 µM (inactive) | > 100 µM (inactive) | 83.6 µM (inactive) | > 100 µM (inactive) | > 100 µM (inactive) | –
COc1ccc(N[S+]([O-])CCCc2ccccc2)cc1 (configuration not stated) | 58.1 µM (inactive) | 14.7 µM (inactive) | 67.3 µM (inactive) | 70 µM (inactive) | 44.9 µM (inactive) | 44.8 µM (inactive) | > 100 µM (inactive) | > 100 µM (inactive) | > 100 µM (inactive) | > 100 µM (inactive) | > 100 µM (inactive) | > 100 µM (inactive) | – | – | 81.1 µM (inactive) | 72.6 µM (inactive) | > 100 µM (inactive) | > 100 µM (inactive) | > 100 µM (inactive) | 88.5 µM (inactive)
CC12CC(C#N)(C#N)C(C#N)(CO1)C(=N)O2 (configuration not stated) | 71.1 µM (inactive) | > 100 µM (inactive) | 44.2 µM (inactive) | – | 24.9 µM (inactive) | > 100 µM (inactive) | > 100 µM (inactive) | > 100 µM (inactive) | > 100 µM (inactive) | 27.7 µM (inactive) | > 100 µM (inactive) | > 100 µM (inactive) | > 100 µM (inactive) | > 100 µM (inactive) | > 100 µM (inactive) | > 100 µM (inactive) | > 100 µM (inactive) | 69.2 µM (inactive) | > 100 µM (inactive) | –
Cc1ccc(S(=O)(=O)NNCNC(=O)c2ccccc2)cc1 | 54.6 µM (inactive) | 83.4 µM (inactive) | 16.4 µM (inactive) | 76 µM (inactive) | 71.6 µM (inactive) | > 100 µM (inactive) | > 100 µM (inactive) | > 100 µM (inactive) | > 100 µM (inactive) | > 100 µM (inactive) | 32.4 µM (inactive) | > 100 µM (inactive) | – | > 100 µM (inactive) | > 100 µM (inactive) | > 100 µM (inactive) | > 100 µM (inactive) | 61.2 µM (inactive) | 33.9 µM (inactive) | 2.29 µM (inactive)
CN(C)c1ccc(C(C#N)N2CCCN(C(C#N)c3ccc(N(C)C)cc3)C2c2ccc(N(C)C)cc2)cc1 (configuration not stated) | > 100 µM (inactive) | > 100 µM (inactive) | > 100 µM (inactive) | > 100 µM (inactive) | > 100 µM (inactive) | > 100 µM (inactive) | > 100 µM (inactive) | > 100 µM (inactive) | > 100 µM (inactive) | > 100 µM (inactive) | > 100 µM (inactive) | > 100 µM (inactive) | > 100 µM (inactive) | – | > 100 µM (inactive) | > 100 µM (inactive) | > 100 µM (inactive) | > 100 µM (inactive) | > 100 µM (inactive) | > 100 µM (inactive)
O=C(Oc1ccccc1)N1c2ccccc2[C@@]23O[C@]24CCC[C@H]3C#C/C=C\C#C[C@H]14 | 14.4 µM (inactive) | 6.5 µM (inactive) | 0.506 µM (active) | 2.82 µM (inactive) | 7.48 µM (inactive) | – | – | 14.9 µM (inactive) | 11.1 µM (inactive) | 16.6 µM (inactive) | 16.1 µM (inactive) | 1.05 µM (active) | 14.3 µM (inactive) | – | 6.5 µM (inactive) | 12.4 µM (inactive) | 10.5 µM (inactive) | 11.2 µM (inactive) | 13.6 µM (inactive) | 10.4 µM (inactive)
NCCNS(=O)(=O)c1ccc(N)cc1 | > 100 µM (inactive) | > 100 µM (inactive) | 18.7 µM (inactive) | > 100 µM (inactive) | > 100 µM (inactive) | > 100 µM (inactive) | > 100 µM (inactive) | > 100 µM (inactive) | > 100 µM (inactive) | 66.1 µM (inactive) | > 100 µM (inactive) | > 100 µM (inactive) | > 100 µM (inactive) | – | > 100 µM (inactive) | > 100 µM (inactive) | > 100 µM (inactive) | > 100 µM (inactive) | > 100 µM (inactive) | 41.4 µM (inactive)
O=C(Nc1nnc(-c2ccccc2)o1)C(SC(=S)N1CCOCC1)c1ccccc1 (configuration not stated) | 14.6 µM (inactive) | 39.8 µM (inactive) | 12.3 µM (inactive) | 22.6 µM (inactive) | – | 15.7 µM (inactive) | 20.9 µM (inactive) | 15.3 µM (inactive) | 18.9 µM (inactive) | 86.3 µM (inactive) | 33.2 µM (inactive) | 37.2 µM (inactive) | 23.8 µM (inactive) | – | 27.1 µM (inactive) | 35.7 µM (inactive) | 17.9 µM (inactive) | 26.4 µM (inactive) | 26.3 µM (inactive) | 9.75 µM (inactive)
O=C(O)c1ccc(N2C=[N+]3C(=Nc4ccccc43)C2)cc1 | > 100 µM (inactive) | > 100 µM (inactive) | > 100 µM (inactive) | > 100 µM (inactive) | > 100 µM (inactive) | > 100 µM (inactive) | > 100 µM (inactive) | > 100 µM (inactive) | > 100 µM (inactive) | > 100 µM (inactive) | > 100 µM (inactive) | > 100 µM (inactive) | > 100 µM (inactive) | > 100 µM (inactive) | > 100 µM (inactive) | > 100 µM (inactive) | > 100 µM (inactive) | > 100 µM (inactive) | > 100 µM (inactive) | –
COc1ccc(N[S+]([O-])c2ccc(Cl)cc2)cc1 (configuration not stated) | 38.8 µM (inactive) | 10.1 µM (inactive) | 38.5 µM (inactive) | 39.4 µM (inactive) | 8.43 µM (inactive) | 28.4 µM (inactive) | 91 µM (inactive) | 55.2 µM (inactive) | 50.5 µM (inactive) | 23.1 µM (inactive) | 14.8 µM (inactive) | 43.5 µM (inactive) | – | 30.7 µM (inactive) | 32.6 µM (inactive) | 10.5 µM (inactive) | 49.8 µM (inactive) | 37.7 µM (inactive) | 28.3 µM (inactive) | 13.4 µM (inactive)

Source: ChEMBL document CHEMBL1201862, “PubChem BioAssay data set” (2004)
